Measurements reported in PubChem BioAssay (NCI).
Several values for one entry are separate records, joined by “and”; a condition that tells them apart may be missing. Equal entries are not always repeated.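 Each compound was tested at five concentrations against cells in 96-well plates for 48 hours. At the GI50, growth is halved. At the TGI there is no net growth.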

Assays:
Test in all cases: NCI tumour cell line growth inhibition, 48 h
[1] = tested on: ACHN renal
[2] = tested on: DU-145 prostate
[3] = tested on: HCT-15 colon
[4] = tested on: HT29 colon
[5] = tested on: IGROV1 ovarian
[6] = tested on: MALME-3M melanoma
[7] = tested on: NCI-H23 lung
[8] = tested on: RXF 393 renal
[9] = tested on: SF-295 CNS
[10] = tested on: SK-MEL-28 melanoma

Compound	GI50 [1]	TGI [1]	GI50 [2]	TGI [2]	GI50 [3]	TGI [3]	GI50 [4]	TGI [4]	GI50 [5]	TGI [5]	GI50 [6]	TGI [6]	GI50 [7]	TGI [7]	GI50 [8]	TGI [8]	GI50 [9]	TGI [9]	GI50 [10]	TGI [10]
CCOC(=O)N1CCN(/[N+]([O-])=N/Oc2ccc([N+](=O)[O-])cc2[N+](=O)[O-])CC1	0.479 µM	1.37 µM	4.73 µM	19.2 µM	0.346 µM	1.46 µM	0.322 µM	15.7 µM	9.04 µM	30.2 µM	1.59 µM	4.05 µM	1.82 µM	3.69 µM	1.95 µM	5.9 µM	1.73 µM	4.56 µM	1.82 µM	6.69 µM
COc1ccc2[nH]cc(-c3ccc(-c4c[nH]c5ccc(OC)cc45)s3)c2c1	4.14 µM	15.9 µM	4.87 µM	18.4 µM	2.73 µM	8.72 µM	2.06 µM	4.51 µM	8.72 µM	51 µM	9.13 µM	22.4 µM	6.36 µM	26.2 µM	3.51 µM	13.6 µM	2.8 µM	8.47 µM	12.6 µM	> 50.2 µM
C/C(=N\NC(=S)N1CC2CCC(CC2)C1)c1nccs1	–	8.99 µM	–	12.5 µM	–	20.4 µM	–	15.9 µM	–	15 µM	–	13.9 µM	–	13 µM	–	5.39 µM	–	7.81 µM	–	19.3 µM
O=C(Nc1ccc([As](=O)(O)O)cc1)Nc1cccc(Cl)c1Cl	–	> 100 µM	–	> 100 µM	–	> 100 µM	–	> 100 µM	–	> 100 µM	–	> 100 µM	–	> 100 µM	–	67.7 µM	–	> 100 µM	–	> 100 µM
C=C(C)C(O)CCC1(C)C=Cc2c(c(C)cc3c2[nH]c2ccccc23)O1 (configuration not stated)	–	25 µM and 16 µM	–	25.1 µM	1.93 µM	8.23 µM and 4.71 µM	1.71 µM	8.53 µM and 3.26 µM	8.33 µM	25 µM and 22 µM	–	25 µM and 24.7 µM	–	23.3 µM	2.78 µM	25 µM and 8.51 µM	–	14.8 µM	–	25 µM
COC(=O)c1ccc(-c2nc3cc(Cl)c(Cl)cc3nc2C#N)cc1	> 100 µM	> 100 µM	> 100 µM	> 100 µM	> 100 µM	> 100 µM	> 100 µM	> 100 µM	> 100 µM	> 100 µM	> 100 µM	> 100 µM	> 100 µM	> 100 µM	> 100 µM	> 100 µM	> 100 µM	> 100 µM	> 100 µM	> 100 µM
CN(/N=C/c1cccc2cccnc12)c1ccc([N+](=O)[O-])cc1[N+](=O)[O-]	–	59.3 µM	–	> 100 µM	–	> 100 µM	–	> 100 µM	–	70.8 µM	–	70.2 µM	–	50.1 µM	–	40.9 µM	–	33 µM	–	> 100 µM
O.O.[NH-]C1(C(=O)O)CCCC1.[NH-]C1(C(=O)O)CCCC1.[Ni+2]	> 100 µM	> 100 µM	> 100 µM	> 100 µM	–	> 100 µM	–	> 100 µM	–	> 100 µM	–	> 100 µM	–	> 100 µM	–	> 100 µM	–	> 100 µM	–	> 100 µM
CCN(Cc1cc(Nc2nc(C)cn3c(-c4cn[nH]c4)cnc23)sn1)C(C)(C)CO	0.0306 µM	11.9 µM	0.0822 µM	6.58 µM	0.0746 µM	11.4 µM	0.0725 µM	0.812 µM	0.0257 µM	12.9 µM	0.648 µM	16.2 µM	0.191 µM	7.09 µM	< 0.012 µM	0.0907 µM	0.0468 µM	3.36 µM	1.41 µM	14.7 µM
C[C@]12CC[C@@H]3c4ccc(OC(=O)N(CCCl)CCCl)cc4CC[C@H]3[C@@H]1CC[C@@H]2O	3.71 µM	> 68.5 µM	2.53 µM	8.63 µM	0.875 µM	–	2.41 µM	–	4.7 µM	33.4 µM and 3.65 µM	1.16 µM	7.52 µM	2.79 µM	–	2.23 µM	6.42 µM	0.819 µM	4.14 µM	3.75 µM	–
COc1ccc(-c2cc3c(c4cc(OC)ccc24)C(=O)OC3=O)cc1	–	> 100 µM	–	> 100 µM	–	> 100 µM	–	> 100 µM	–	> 100 µM	–	> 100 µM	–	> 100 µM	–	> 100 µM	–	> 100 µM	–	> 100 µM
CC[C@@H]1c2c(C#N)ncn2-c2cnc(Nc3ccc(C(=O)NC4CCN(C5CCN(CC6CC6)CC5)CC4)cc3OC)nc2N1C1CCCC1	0.625 µM	1.93 µM	0.0235 µM and 0.0353 µM	0.072 µM and 0.246 µM	0.379 µM	1.44 µM	0.036 µM	0.135 µM	0.0358 µM	1.36 µM	0.0853 µM	1.85 µM	0.0374 µM	1.38 µM	0.0462 µM	1.8 µM	0.0454 µM	1.94 µM	0.127 µM	1.75 µM
CCOC(=O)Nc1ccc2c(c1)/C(=N\NC(N)=S)c1ccccc1-2	3.87 µM	15.7 µM	5.15 µM	20 µM	3.25 µM	18.4 µM	3.23 µM	13 µM	5.88 µM	28.1 µM	9.23 µM	33.4 µM	2.95 µM	12.6 µM	1.93 µM	4.6 µM	2.37 µM	7.59 µM	4.58 µM	17.7 µM
COc1cc(C(O)CCBr)c(OC)cc1C (configuration not stated)	–	> 100 µM	–	> 100 µM	–	> 100 µM	–	> 58.3 µM	–	> 100 µM	–	> 100 µM	–	> 100 µM	–	> 100 µM	–	> 73.1 µM	–	> 100 µM
C=C1C(=O)O[C@@H]2C[C@@H](C)[C@@H]3C=CC(=O)[C@@]3(C)[C@@H](O)[C@H]12	–	6.33 µM	–	15.5 µM	–	9.54 µM	–	3.88 µM	–	8.1 µM	–	3.87 µM	–	4.15 µM	–	1.35 µM	–	6.48 µM	–	3.77 µM
